Data taken from patent US20160000750A1, “COMBINATION OF EGCG OR METHYLATED EGCG AND A PDE INHIBITOR” (KYUSHU UNIVERSITY, NATIONAL UNIVERSITY CORPORATION, priority 2010, published 2016).

Legend:
[1] = test system: Toll-like receptor (TLR) 2; assay: TLR2 expression in RAW 264.7 by Western blotting; assay type: cell-based, mouse; settings: vardenafil 5 μM, EGCG 10 μM added after 3 hours, 24 hours, untreated = 100
Method: A mouse macrophage cell line, RAW 264.7, was seeded in a 5-mL dish at 1×10^5 cells/mL and was pre-cultured in a DMEM medium supplemented with 1% FCS for 24 hours. Subsequently, vardenafil was added thereto at a concentration of 5 μM. After 3 hours, EGCG was added thereto at a concentration of 0 μM or 10 μM. After 24 hours, the cells were collected, and the expressions of Toll-like receptor (TLR) 2 and TLR 4 were measured by Western blotting.

[2] = test system: human multiple myeloma cell line, U266; assay: Trypan blue cell viability and viable cell count, U266; assay type: cell-based; settings: vardenafil 5 μM, EGCG 5 μM added after 3 hours, 96 hours
Method: A human multiple myeloma cell line, U266, was subcultured in an RPMI 1640 medium (NISSUI PHARMACEUTICAL Co. LTD., Tokyo) supplemented with 10% fetal calf serum (FCS) (BIOLOGICAL INDUSTRIES) at 37° C. under vapor-saturated 5% CO2 conditions. The cells were cultured in the logarithmic growth phase. A human acute myeloid leukemia cell line, HL60, was subcultured in an RPMI 1640 medium supplemented with 10% fetal calf serum (FCS) at 37° C. under vapor-saturated 5% CO2 conditions. The cells were cultured in the logarithmic growth phase. […]
The plate was returned to the incubator immediately after the addition of EGCG, followed by culturing for 96 hours. […] After 10 minutes, the number of the cells was counted with a hemocytometer (Becton, Dickinson and Company). Unstained cells were deemed as viable cells, and the cell viability was determined as a ratio of the number of unstained cells in trypan blue staining to the total number of cells. […]

[3] = test system: human multiple myeloma cell line, RPMI8226; assay: Trypan blue cell viability and viable cell count, RPMI8226; assay type: cell-based; settings: vardenafil 5 μM, EGCG 5 μM, 96 hours
Method: Enhancement of the activity of EGCG on multiple myeloma cells by vardenafil was investigated. A human multiple myeloma cell line, RPMI8226, was seeded in a 24-well plate at 5×10^4 cells/mL, and vardenafil was added thereto at a final concentration of 5 μM. After 3 hours, EGCG was added thereto at a final concentration of 5 μM. After 96 hours, cell viability (A) and the number (B) of viable cells were measured by trypan blue staining. The value of a control group of cells not treated with EGCG and vardenafil was defined as 100%. The results are shown in FIG. 8 (n=3, Tukey's test, *: P<0.05, ***: P<0.001).

[4] = test system: mouse plasmacytoma cell line, MPC11, transplanted to Balb/c mice; assay: Tumor formation of MPC11 transplanted to Balb/c mice; assay type: in vivo; settings: MPC11 s.c., EGCG 15 mg/kg i.p., vardenafil 5 mg/kg i.p., once every two days from day 4
Method: Furthermore, 5-week old female balb/c mice were preliminarily bred for one week and were then inoculated with a mouse multiple myeloma cell line, MPC11, by subcutaneous injection, in the right back, of […] of a suspension of 5×10^7 cells/mL of the cells in an RPMI medium. After 4 days from the inoculation, EGCG (15 mg/kg i.p.) and vardenafil (5 mg/kg i.p.) were administered once every two days, and the tumor volume was measured with varnier clipers. In the graph, EGCG and VDN indicate single administration of EGCG and vardenafil, respectively, and EGCG/Vardenafil indicates combination administration of EGCG and vardenafil.

## (−)-epigallocatechin-3-O-gallate [EGCG]
[1]
  TLR2 expression level(%): 90%
[2]
  cell viability (cell-killing activity): any cytotoxicity was not observed
[3]
  cell viability (cell-killing activity): any cytotoxicity was not observed
[4]
  tumor formation (tumor volume): any inhibitory action on tumor formation of the mouse plasmacytoma cell line was not observed
